Test results taken from ChEMBL document CHEMBL2311494, “Syntheses and evaluation of the antioxidant activity of novel methoxypsoralen derivatives” (Eur J Med Chem, 2013).
Activity calls are given as the source filed them. The rule behind the calls is not given here.

Assays:
[1] = test system: Radical scavenging activity; experiment: Antioxidant activity assessed as DPPH radical scavenging activity at 100 uM after 60 mins by spectrophotometric analysis; type: functional
[2] = Inhibition of soybean LOX using sodium linoleate as substrate by spectrophotometric analysis; design: species or system Glycine max
[3] = Antioxidant activity assessed as inhibition of AAPH-induced linoleic acid lipid peroxidation at 100 uM by spectrophotometric analysis; type: functional
[4] = test system: Rattus norvegicus; experiment: Toxicity against Fischer-344 rat up to 0.1 mmol/kg, ip; type: organism-based; details: in vivo
[5] = test system: Radical scavenging activity; experiment: Antioxidant activity assessed as DPPH radical scavenging activity at 100 uM after 20 mins by spectrophotometric analysis; type: functional
[6] = Cytotoxicity against human 1BR3 cells assessed as cell viability at 1 uM after 24 hrs by MTT assay; type: cell-based; details: read-out: Activity
[7] = Cytotoxicity against human 1BR3 cells assessed as cell viability at 100 uM after 24 hrs by MTT assay; type: cell-based; details: read-out: Activity
[8] = Cytotoxicity against human 1BR3 cells assessed as cell viability at 20 uM after 24 hrs by MTT assay; type: cell-based; details: read-out: Activity
[9] = Cytotoxicity against human 1BR3 cells assessed as cell viability at 10 uM after 24 hrs by MTT assay; type: cell-based; details: read-out: Activity
[10] = Cytotoxicity against human 1BR3 cells assessed as cell viability at 50 uM after 24 hrs by MTT assay; type: cell-based; details: read-out: Activity
[11] = test system: Rattus norvegicus; experiment: Antiinflammatory activity in Fischer-344 rat assessed as inhibition of carrageenan-induced paw edema at 0.01 mmol/kg, ip after 3.5 hrs relative to control; type: functional; details: Fischer-344, ip
[12] = test system: Glycine max; experiment: Inhibition of soybean LOX using sodium linoleate as substrate at 100 uM by spectrophotometric analysis

Row | Structure (SMILES) | Activity [1] | IC50 ([2]; read-out: IC50) [µM] | inhibition [3] | Activity [4] | Activity [5] | viability at 24 h, 1 µM [6] [%] | viability at 24 h, 100 µM [7] [%] | viability at 24 h, 20 µM [8] [%] | viability at 24 h, 10 µM [9] [%] | viability at 24 h, 50 µM [10] [%] | IC50 [2] | inhibition in vivo at 10 µmol/kg [11] [%] | inhibition [12] [%]
1 | COc1c2ccoc2c(-c2ccc(C(=O)O)cc2)c2oc(=O)ccc12 | 19% | 60 | 66% | Non-toxic | 22% | – | – | – | – | – | – | – | –
2 | O=c1ccc2c(O)c3ccoc3c(Br)c2o1 | 56% | 30.5 | 81% | – | 20% | 97 | 91 | 95.2 | 92.8 | 91.6 | – | – | –
3 | Cc1oc2c(C)c3oc(=O)cc(C)c3cc2c1-c1ccc(C(=O)O)cc1 | inactive | – | 80% | Non-toxic | inactive | – | – | – | – | – | Not Active | – | –
4 | COc1c2occc2c(-c2ccc(C(=O)O)cc2)c2ccc(=O)oc12 | 15% | – | 100% | Non-toxic | 11% | – | – | – | – | – | Not Active | – | –
5 | COc1c2occc2cc2ccc(=O)oc12 [METHOXSALEN] | 16% | 50 | 5% | – | 16% | 101 | 89.6 | 96.7 | 98.1 | 92 | – | – | –
6 | CC(=O)c1c(C)oc2c(C)c3oc(=O)cc(C)c3cc12 | 14% | 79 | 67% | – | 14% | – | – | – | – | – | – | – | –
7 | CCOC(=O)/C=C/c1c(C)oc2c(C)c3oc(=O)cc(C)c3cc12 | 60% | – | 77% | Non-toxic | 8% | – | – | – | – | – | Not Active | – | –
8 | COc1c2occc2c(-c2ccc(/C=C/C(=O)OC(C)(C)C)cc2)c2ccc(=O)oc12 | 18% | 7.5 | 72% | Non-toxic | 15% | 98.8 | 46.3 | 67.9 | 74.1 | 66.3 | – | 26.2 | –
9 | COc1c2ccoc2cc2oc(=O)ccc12 [BERGAPTEN] | 14% | – | 49% | – | 14% | 105 | 88.9 | 99.4 | 102 | 91.7 | Not Active | – | –
10 | COc1c2occc2c(Br)c2ccc(=O)oc12 | 8% | 40 | 62% | – | 8% | – | – | – | – | – | – | – | –
11 | COc1ccc2c(c1)c(CC(=O)O)c(C)n2C(=O)c1ccc(Cl)cc1 [INDOMETHACIN] | – | – | – | Non-toxic | – | – | – | – | – | – | – | 47 | –
12 | O=c1ccc2cc3ccoc3c(O)c2o1 [XANTHOTOXOL] | 22% | 89 | 5% | – | 25% | – | – | – | – | – | – | – | –
13 | CC(Cc1ccc(O)c(O)c1)C(C)Cc1ccc(O)c(O)c1 (centres undefined) | 83% | – | – | – | 81% | – | – | – | – | – | – | – | –
14 | Cc1oc2c(C)c3oc(=O)cc(C)c3cc2c1-c1ccc(/C=C/C(=O)OC(C)(C)C)cc1 | inactive | – | 41% | Non-toxic | inactive | – | – | – | – | – | – | – | 33
15 | COc1c2ccoc2c(Br)c2oc(=O)ccc12 | 7% | 90 | 83% | – | 7% | – | – | – | – | – | – | – | –
16 | CCOC(=O)/C=C/c1c2ccoc2c(OC)c2oc(=O)ccc12 | 6% | 75 | 83% | Non-toxic | 5% | – | – | – | – | – | – | – | –
17 | Cc1oc2c(C)c3oc(=O)cc(C)c3cc2c1Br | 100% | – | 35% | – | inactive | – | – | – | – | – | Not Active | – | –

Row | Structure (SMILES) | Activity [1] | IC50 ([2]; read-out: IC50) [µM] | inhibition [3] | Activity [4] | Activity [5] | viability at 24 h, 1 µM [6] [%] | viability at 24 h, 100 µM [7] [%] | viability at 24 h, 20 µM [8] [%] | viability at 24 h, 10 µM [9] [%] | viability at 24 h, 50 µM [10] [%] | IC50 [2] | inhibition in vivo at 10 µmol/kg [11] [%] | inhibition [12] [%]
18 | COc1c2ccoc2c(-c2ccc(/C=C/C(=O)OC(C)(C)C)cc2)c2oc(=O)ccc12 | 12% | 100 | 77% | Non-toxic | 8% | – | – | – | – | – | – | – | –
19 | COc1c2occc2c(/C=C/C(=O)O)c2ccc(=O)oc12 | 7% | 50 | 62% | Non-toxic | 7% | – | – | – | – | – | – | – | –
20 | COc1c2occc2c(C(C)=O)c2ccc(=O)oc12 | 8% | 100 | 85% | – | 8% | – | – | – | – | – | – | – | –
21 | COc1c2occc2c(/C=C/C(=O)OC(C)(C)C)c2ccc(=O)oc12 | 3% | – | 89% | Non-toxic | 3% | – | – | – | – | – | Not Active | – | –
22 | COc1c2ccoc2c(/C=C/C(=O)OC(C)(C)C)c2oc(=O)ccc12 | inactive | – | 79% | Non-toxic | inactive | – | – | – | – | – | Not Active | – | –
23 | Cc1oc2c(C)c3oc(=O)cc(C)c3cc2c1-c1ccc(/C=C/C(=O)O)cc1 | inactive | – | 84% | Non-toxic | inactive | – | – | – | – | – | – | – | 13
24 | COc1c2occc2c(/C=C/C(=O)OCc2cccc(Oc3ccccc3)c2)c2ccc(=O)oc12 | 9% | 55 | 89% | Non-toxic | 7% | – | – | – | – | – | – | – | –
25 | Cc1c(C)c2c(c(C)c1O)CCC(C)(C(=O)O)O2 (centres undefined) | – | – | 63% | – | – | – | – | – | – | – | – | – | –
26 | COc1c2ccoc2c(/C=C/C(=O)O)c2oc(=O)ccc12 | 14% | 83 | 55% | Non-toxic | 14% | – | – | – | – | – | – | – | –
27 | Cc1oc2c(C)c3oc(=O)cc(C)c3cc2c1/C=C/C(=O)O | 11% | – | 73% | Non-toxic | 11% | – | – | – | – | – | – | – | 9
28 | COc1c2ccoc2c(-c2ccc(/C=C/C(=O)O)cc2)c2oc(=O)ccc12 | 28% | 24 | 55% | Non-toxic | 22% | 65.6 | 13.3 | 24.7 | 55.6 | 18.5 | – | – | –
29 | O=c1ccc2c(O)c3ccoc3cc2o1 [BERGAPTOL] | 36% | 41.5 | 95% | – | 34% | – | – | – | – | – | – | – | –
30 | O=c1ccc2c(Br)c3ccoc3c(O)c2o1 | 43% | 50 | 83% | – | 33% | – | – | – | – | – | – | – | –
31 | COc1c2occc2c(-c2ccc(/C=C/C(=O)O)cc2)c2ccc(=O)oc12 | 44% | 62 | 12% | Non-toxic | 41% | – | – | – | – | – | – | – | –
32 | CCOC(=O)/C=C/c1c2occc2c(OC)c2ccc(=O)oc12 | inactive | – | 8% | Non-toxic | inactive | – | – | – | – | – | Not Active | – | –
33 | Cc1cc2cc3c(C)cc(=O)oc3c(C)c2o1 [TRIOXSALEN] | inactive | – | inactive | – | inactive | 107 | 95.2 | 95.2 | 96.7 | 92.2 | – | – | 40
